The text below walks through data of ChEMBL document CHEMBL5042512 (Eur J Med Chem, 2022).

Molecules are shown by their SMILES. The source made the active and inactive calls. No cut-off for these calls is given here.

Assay [1] concerns KYSE-450. The assay can be described thus: Induction of mitochondrial membrane potential loss in human KYSE-450 cells assessed as downregulation of Bcl-2 protein at 80 to 100 nM measured after 48 hrs by western blot analysis. The assay is classed as functional, cell-based. The conditions noted are these: dose 80-100 nM. On the technique in general: Immunoblotting shows a protein as a band on a membrane.

For assay [2], the system named is KYSE-30. The assay can be described thus: Induction of mitochondrial membrane potential loss in human KYSE-30 cells assessed as decrease in XIAP level at 80 to 100 nM measured after 48 hrs by western blot analysis. The assay is classed as functional, cell-based. To be noted: dose 80-100 nM.
The test system of assay [3] is KYSE-30. As to the kind of experiment: Down regulation of CDK1 protein expression in human KYSE-30 cells at 80 to 100 nM for 48 hrs by western blot analysis. The assay is classed as functional, cell-based. To be noted: dose 80-100 nM.
Assay [4] deals with KYSE-30. The assay can be described thus: Induction of mitochondrial membrane potential loss in human KYSE-30 cells assessed as Bak expression at 80 to 100 nM measured after 48 hrs by western blot analysis. The assay is classed as functional, cell-based. To be noted: dose 80-100 nM.
The test system of assay [5] is KYSE-30. The assay can be described thus: Induction of mitochondrial membrane potential loss in human KYSE-30 cells assessed as upregulation of Bax protein at 80 to 100 nM measured after 48 hrs by western blot analysis. It counts as functional, cell-based. The conditions noted are these: dose 80-100 nM.
Assay [6] addresses T1, Tubulin (Homo sapiens) (UniProt P68371+Q9H4B7+P0DPH7+P68366+Q13509+Q71U36+P04350+Q3ZCM7+P07437+P68363+Q9BQE3+Q6PEY2+Q13885+Q9BVA1+Q9BUF5). The assay can be described thus: Inhibition of tubulin polymerization in human KYSE-450 cells assessed as weakening of beta tubulin at 100 to 300 nM for 2 hrs by EBI alkylate competition assay. It counts as cell-based. To be noted: dose 100-300 nM.

The species entered for assay [7] is Sus scrofa. As to the kind of experiment: Inhibition of pig brain tubulin polymerization at 3 uM by spectrophotometry.
Assay [8] concerns KYSE-450. The assay can be described thus: Down regulation of CDK1 protein expression in human KYSE-450 cells at 80 to 100 nM for 48 hrs by western blot analysis. The assay is classed as functional, cell-based. The conditions noted are these: dose 80-100 nM.
Assay [9] deals with KYSE-450. As to the kind of experiment: Down regulation of CDC25C protein expression in human KYSE-450 cells at 80 to 100 nM for 48 hrs by western blot analysis. The assay is classed as functional, cell-based. To be noted: dose 80-100 nM.
For assay [10], the system named is KYSE-30. The assay can be described thus: Induction of mitochondrial membrane potential loss in human KYSE-30 cells assessed as Mcl-1 expression at 80 to 100 nM measured after 48 hrs by western blot analysis. It counts as functional, cell-based. The conditions noted are these: dose 80-100 nM.
Assay [11] concerns the target T1, Tubulin (Homo sapiens). As to the kind of experiment: Inhibition of tubulin polymerization in human KYSE-30 cells assessed as weakening of beta tubulin at 100 to 300 nM for 2 hrs by EBI alkylate competition assay. The assay is classed as cell-based. To be noted: dose 100-300 nM.
Assay [12] relates to KYSE-30. As to the kind of experiment: Induction of apoptosis in human KYSE-30 cells assessed as apoptotic cells at 80 nM measured after 48 hrs by annexin-V-FITC and PI staining based flow cytometry analysis (reference value: 8.1667 %). It counts as functional.

On to `COc1ccc(CN(C(=O)CSC(=S)N2CCN(C(=O)OC(C)(C)C)CC2)c2cc(OC)c(OC)c(OC)c2)cc1O`, for which the Activity entry in [1], in assay [2], in assay [3], in assay [5], in assay [8] and in assay [9] was “Dose-Dependent Effect” each time. Moreover, the Activity in assay [12] amounted to 23.8%. In addition, the result in [4] and in assay [10] was inactive. Moreover, the inhibition result in assay [6], in assay [7] and in assay [11] was “Active” in each case.
